Data published in patent US20230398194A1 (priority 2016, published 2023).

B1: P2A: carbapenemase, beta-lactamase polypeptide of SEQ ID NO: 6 (protein)
chain: ETGTISISQLNKNVWVHTELGYFNGEAVPSNGLVLNTSKGLVLVDSSWDNKLTKELIEMVEKKFQKRVTDVIITHAHADRIGGITALKERGIKAHSTALTAELAKNSGYEEPLGDLQTITSLKFGNTKVETFYPGKGHTEDNIVVWLPQYQILAGGCLVKSAEAKDLGNVADAYVNEWSTSIENVLKRYGNINSVVPGHGEVGDKGLLLHTLDLLK

What was measured:
porcine gut microbiome = experiment: Piglet gut microbiome study: fecal resistome by whole genome shotgun metagenomics, ceftriaxone with or without SYN-004 (ribaxamase); assay type: in vivo, pig; conditions: for blaOXA genes (extended spectrum OXA class D beta-lactamases), level in fecal microbiome / change in the mean of relative gene frequencies of acrE, baeR, emrY, mdtD, mdtN, pbp2, pbp4, AmpC (FIG. 3) / mdtD gene levels / AmpC gene frequencies / Aminoglycoside_strA gene level (FIG. 4A) / Tetracycline_tet39 gene level (FIG. 4B): CRO alone vs CRO+ribaxamase; for blaOXA genes (extended spectrum OXA class D beta-lactamases), level in fecal microbiome: 5 piglets per cohort; for AmpC gene frequencies: by Day 4, after an increase from Day −7 to Day −4 in both cohorts; for abundance of antibiotic resistance genes in the porcine gut microbiome (overall conclusion): ceftriaxone treatment alone vs with SYN-004 (ribaxamase); for Aminoglycoside_strA gene level (FIG. 4A) / Tetracycline_tet39 gene level (FIG. 4B): day 4 after antibiotic treatment, 5 animals per cohort
Description: See Table 2 and FIG. 1 for study design and timeline. Animals were acclimated for 14 days prior to study initiation. Ceftriaxone (CRO) was administered daily for 7 days and animals that received SYN-004 (ribaxamase) starting the day before antibiotic treatment for 9 consecutive days. Feces were collected on Study Days −7, −4, 4, and 8. Fecal DNA was isolated and subjected to whole genome shotgun metagenomics analyses. The community resistome, the collection of antibiotic resistance genes in the microbiome, was identified by comparison to a curated antibiotic resistance gene database.
Two groups of 5 normal piglets each were used in this study. Group 1 animals were treated with ceftriaxone (IV, 1× per day, 50 mg/kg) for 7 consecutive days and Group 2 animals received ceftriaxone (IV, 1× per day, 50 mg/kg) for 7 consecutive days and SYN-004 (ribaxamase, orally, 4× per day, 75 mg/dose) for 9 consecutive days starting the day before ceftriaxone delivery.
Normal piglets (2 months old, approximately 50 lbs) were acclimated for 14 days prior to study initiation. Two cohorts of 5 animals each were used for this study, Group 1 received ceftriaxone alone and Group 2 received ceftriaxone and SYN-004 (ribaxamase), as indicated in Table 2. Stool was collected at 4 time points, two prior to treatment, at Study Days −7 and −4, and two during treatment at Study Day 4 and 8.
Total DNA was isolated from fecal specimens, using the MOBIO Power-Soil® DNA Isolation Kit (Qiagen, Germantown, MD), following the manufacturer's instructions. Each DNA sample was normalized in 3-18 uL of nuclease-free water for a final concentration of 0.5 ng/uL using the Biomek FX liquid handler (Beckman Coulter Life Sciences, Brea, CA). Libraries were constructed using the Nextera XT Library Prep Kit (illumine, San Diego, CA). For each sample, an input of 0.5 ng was used in the tagmentation reaction, followed by 13 cycles of PCR amplification using Nextera i7 and i5 index primers and 2× KAPA master mix per the modified Nextera XT protocol. The PCR products were purified using 1.0× speed beads and eluted in 15 ul of nuclease-free water. The final libraries were quantified by PicoGreen fluorometric assay (100× final dilution) and the concentrations were in the range of 0.1-4.0 ng/ul. The libraries were pooled, based on concentration determined by PicoGreen and loaded onto a high sensitivity (HS) chip run on the Caliper LabChipGX (Perkin Elmer, Waltham, MA). The base pair size reported was in the range of 301-680 bp. Each pool of 64 was run across 8 lanes of an Illumina HiSeq v3 flowcell, targeting 100 bp paired end reads per sample.
Briefly, raw, unassembled shotgun sequence reads were probed against the CosmosID, Inc. curated antibiotic resistance gene database.

canine gut microbiome = experiment: Canine fecal resistome analysis, oral amoxicillin with or without SYN-004; assay type: in vivo, dog; conditions: for abundance of antibiotic resistance genes in the canine gut microbiome (overall conclusion): oral amoxicillin exposure alone vs with SYN-004; for change in the mean of relative gene frequencies of selected resistance genes (FIG. 9): amoxicillin alone vs amoxicillin+SYN-004
Description: To determine if SYN-004 affected the abundance of antibiotic resistance genes, resistome analyses were performed.
Several genes were selected for further analysis. For each selected gene, the change in the mean of relative gene frequencies from pretreatment to post treatment was compared in the amoxicillin alone or the amoxicillin+SYN-004 cohorts (FIG. 9).

fecal microbiomes = conditions: for effect on microbiota populations in the GI tract (conclusion): oral amoxicillin alone vs with SYN-004; for position of post treatment fecal microbiomes in Principal Coordinate Analysis (Bray-Curtis, FIG. 7): post treatment vs pretreatment cluster, amoxicillin alone vs amoxicillin+SYN-004, 5 dogs per cohort
Description: The ability of a delayed-release formulation of SYN-004 (ribaxamase), to mitigate the propagation of antibiotic resistance genes caused by exposure of the gut microbiota to oral amoxicillin was evaluated in normal, seven month old female beagles. Animals were acclimated for 24 days prior to dosing initiation. Animals (n=10, 5 animals per cohort) received oral amoxicillin (40 mg/kg/dose, reconstituted in apple juice) three times a day+/−one capsule of SYN-004 (10 mg) for 5 days, with the last dose on the morning of day 6. The animals received 16 total doses of amoxicillin+/−SYN-004. Fecal samples were collected prior to antibiotic dosing and after the last dose. Blood was collected after the first antibiotic dose on day 1 and after the last dose on day 6. On each blood collection day, blood was collected from each animal at seven time points, 0.5, 1, 2, 3, 4, 6, and 8 hrs. Amoxicillin serum levels were measured using a validated liquid chromatography (LC) method with tandem mass spectrometry detection (LC/MS/MS). DNA isolated from fecal samples was subjected to whole genome shotgun sequencing and metagenomics analyses.
DNA isolated from the fecal samples was subjected to whole genome sequencing and analyzed using the CosmosID, Inc. bioinformatics software package. Analyses included identification of the microbiota species present in the fecal microbiomes and identification of antibiotic-resistance genes based on the percentage gene coverage for each gene and quantified by determining the frequency (%) of each gene in each sample.
To determine if SYN-004 protected the fecal microbiomes from damage caused by oral amoxicillin, the microbiome bacterial populations were compared using a three coordinate Principal Coordinate Analysis (CosmosID, Inc. bioinformatics software). Distance between points indicates degree of difference in sample diversity with points close together more similar.

[1] = Amoxicillin serum levels (LC/MS/MS) in dogs given oral amoxicillin with or without SYN-004; assay type: in vivo, dog; conditions: for amoxicillin serum levels (area under the curve), amoxicillin alone vs amoxicillin+SYN-004: amoxicillin 40 mg/kg/dose oral TID +/- SYN-004 10 mg capsule
Description: Amoxicillin serum levels were plotted for each group for each blood collection day as mean+standard deviation for each time point. Area under the curve was calculated for each group for each bleed day (day 1 and day 6) and were compared statistically using one-way ANOVA with Dunnett's multiple comparison tests (Graph Pad Prism 7.03 software).

[2] = ertapenem 30 mg/kg IV once a day; P2A 50 mg PO 4 times a day; expected result
Description: Animals (n=16, 8 animals per cohort) receive ertapenem (30 mg/kg/dose, IV, once a day for 4 days)+/−one capsule of P2A (50 mg, PO, 4 times a day). The P2A is started the day before antibiotic treatment and continues with one final dose the morning of day 5. […] Blood is collected on day 3 after 3 ertapenem doses. Blood is collected at 3 timepoints, 1 hr, 2 hrs, and 3 hrs after ertapenem.

Molecule	blaOXA genes (extended spectrum OXA class D beta-lactamases), level in fecal microbiome (porcine gut microbiome; Day 4)	change in the mean of relative gene frequencies of acrE, baeR, emrY, mdtD, mdtN, pbp2, pbp4, AmpC (FIG. 3) (porcine gut microbiome; Day −4 to Day 4)	mdtD gene levels (porcine gut microbiome; Day −4 to Day 4)	AmpC gene frequencies (porcine gut microbiome)	abundance of antibiotic resistance genes in the porcine gut microbiome (overall conclusion) (porcine gut microbiome)	Aminoglycoside_strA gene level (FIG. 4A) (porcine gut microbiome)	Tetracycline_tet39 gene level (FIG. 4B) (porcine gut microbiome)	abundance of antibiotic resistance genes in the canine gut microbiome (overall conclusion) (canine gut microbiome)	change in the mean of relative gene frequencies of selected resistance genes (FIG. 9) (canine gut microbiome; pretreatment to post treatment)	effect on microbiota populations in the GI tract (conclusion) (fecal microbiomes)	position of post treatment fecal microbiomes in Principal Coordinate Analysis (Bray-Curtis, FIG. 7) (fecal microbiomes)	further results
CO/N=C(\C(=O)N[C@@H]1C(=O)N2C(C(=O)O)=C(CSc3nc(=O)c(=O)[nH]n3C)CS[C@H]12)c1csc(N)n1 [Ceftriaxone, reference compound]	present at high levels in two of five CRO animals	increased for each gene	doubled	continued to increase	increased the abundance of antibiotic resistance genes	detected at high levels in 4 of 5 animals	detected at high levels in 4 of 5 animals	–	–	–	–	blaCTX-M_82 or blaCFX_A4 genes (class A serine beta-lactamases), level in fecal microbiome (porcine gut microbiome; Day 4, CRO alone): detected at Day 4 at high levels in two of the CRO animals; abundance of antibiotic resistance genes in the fecal microbiome (heatmaps, FIG. 2A, 2B) (porcine gut microbiome; post-treatment Day 4, CRO 50 mg/kg IV 1x per day alone vs CRO+ribaxamase 75 mg oral QID): higher abundance of antibiotic resistance genes
CC1(C)S[C@@H]2[C@H](NC(=O)[C@H](N)c3ccc(O)cc3)C(=O)N2[C@H]1C(=O)O [amoxicillin]	–	–	–	–	–	–	–	increased the abundance of antibiotic resistance genes	increased for each gene	disrupts the microbiota populations in the GI tract	4/5 post treatment samples were plotted far from the pretreatment cluster	abundance of antibiotic resistance genes, pretreatment to post treatment (canine gut microbiome; amoxicillin alone compared to amoxicillin+SYN-004 cohort): higher abundance of antibiotic resistance genes post treatment; TEM and OXA beta-lactamase genes (e.g. TEM-113, OXA-136, FIG. 8), detection (canine gut microbiome; not detected prior to amoxicillin exposure): detected only at day 6 in the amoxicillin alone cohort; marA gene levels (canine gut microbiome; pretreatment to post treatment, amoxicillin alone): almost doubled
SYN-004: beta-lactamase with the amino acid sequence of SEQ ID NO: 1; D276N mutant of P1A	absent or observed at lower frequencies	decreased for each gene in the CRO+ribaxamase group except for pbp2	reduced	decreased to levels similar to the Day −7 frequencies	attenuated this enrichment process	remained low or absent in all animals	only one animal in the CRO+ribaxamase cohort was identified with a high level	attenuated this enrichment process	decreased for each gene	can mitigate the damage caused by oral amoxicillin	also clustered with the pretreatment samples	pbp2 relative gene frequency change (porcine gut microbiome; Day −4 to Day 4, CRO+ribaxamase): increased only slightly above baseline; antibiotic resistance gene frequencies in the presence of ribaxamase (porcine gut microbiome; with ceftriaxone, vs pre-antibiotic treatment levels): reduced or maintained at pre-antibiotic treatment levels; amoxicillin serum levels (area under the curve), amoxicillin alone vs amoxicillin+SYN-004 ([1]; day 1, p=0.703): not significantly different; amoxicillin serum levels (area under the curve), amoxicillin alone vs amoxicillin+SYN-004 ([1]; day 6, p=0.098): not significantly different; interference with amoxicillin systemic absorption from the gastrointestinal tract ([1]; delayed release SYN-004 formulation, dog): did not interfere; marA gene levels, reduction (canine gut microbiome; pretreatment to post treatment, amoxicillin+SYN-004 cohort): approximately 50%; antibiotic resistance gene frequencies in the presence of SYN-004 (canine gut microbiome; with oral amoxicillin): reduced
B1	–	–	–	–	–	–	–	–	–	–	–	ertapenem serum levels, ertapenem alone vs ertapenem+P2A [2]: not expected to be different
